Test results: article PMC2359721 (British Journal of Cancer, 2007)

Experiments:
[1] = minipig, in vivo; cited from earlier work
[2] = Phase I safety, DLT and MTD, OD 14 days on / 14 days off; assay type: in vivo
Procedure: Tablets were taken 1 h before breakfast. A cycle was defined as 14 days on treatment followed by 14 days off medication. […] The starting dose corresponded with one-fifth of the toxic dose low in rats, the most sensitive species. The dose for successive cohorts was doubled until observation of drug-related AE grade ⩾2 according to common toxicity criteria v3.0 in one or more patients in the first cycle. Thereafter escalation steps were ⩽50%. Should DLT be observed in one out of six patients and dose escalation continued, escalation steps were ⩽35%. Initially, three patients were treated per dose level. If one patient experienced drug-related DLT, three additional patients were treated. When no further patient experienced DLT, the dose was escalated. When ⩾2/6 patients experienced DLT, three additional patients were treated 1 dose tier below unless six had already been treated there.
Maximum tolerated dose was defined as the highest dose with ⩽1/6 patients experiencing DLT during cycle 1. Dose-limiting toxicity was defined as grade 3 or 4 nonhaematological toxicity except untreated nausea, vomiting, or diarrhoea; grade 4 haematological toxicity; grade 3 diarrhoea, nausea, or vomiting despite supportive care; need for loperamide for ⩾7 days to treat or prevent grade ⩾2 diarrhoea; need for continuous administration of 5HT-3 antagonists or dexamethasone to treat or prevent grade ⩾2 nausea or vomiting; occurrence of grade ⩾2 cardiac left ventricular function or renal toxicity. In the absence of DLT or disease progression, patients received six cycles and were allowed to continue in an extension protocol. Intrapatient dose escalation was not allowed. The study was approved by local Ethics Committees, and all patients provided written informed consent.
(§1) Prior to therapy, medical history taking and physical examination were performed. A complete blood cell count (CBC), white blood cell (WBC) differential and serum biochemistry were performed, as were urinalysis, electrocardiogram, MUGA scanning and, chest X-ray. Weekly evaluations during cycles 1 and 2 and every other week thereafter included physical examination, AE assessment, CBC, WBC differential and serum chemistry including renal function. Tumour measurements and MUGA scanning were performed every other cycle. Response was assessed using RECIST ([Therasse et al, 2000]).

advanced solid tumours [3] = assay: Antitumour activity (RECIST); assay type: in vivo, human
Procedure: as §1

C-SRC = details: at concentrations 100- to 1000-fold higher; ref Boehringer-Ingelheim, data on file; cited from earlier work
epidermal keratinocytes = assay: Pharmacodynamics in paired skin biopsies (immunohistochemistry); assay type: in vivo, human; details: on therapy day 14 cycle 1, all dose levels pooled, 36 paired biopsies; pretreatment 14.0±4.5%; P<0.0001
[4] = target: vascular endothelial growth factor 2; details: at concentrations 100- to 1000-fold higher; ref Boehringer-Ingelheim, data on file; cited from earlier work
[5] = Plasma pharmacokinetics in patients (HPLC-MS/MS, noncompartmental); details: for CL/F / Vd/F / half-life / AUC(0-t) / Cmax / Tmax: human, plasma, oral
advanced solid tumours [6] = details: cited from earlier work
[7] = system: A431, MDA-MB-453, NCI-N87 gastric and SKOV-3 ovarian xenografts; design: method as in Boehringer-Ingelheim, data on file; details: oral, ref Boehringer-Ingelheim, data on file, cited from earlier work
[8] = system: gefitinib-resistant kinases; design: method as in Carter et al, 2005; Kwak et al, 2005; details: preclinical studies, ref Carter et al, 2005, Kwak et al; cited from earlier work
EGFR phosphorylation = system: EGFR phosphorylation; design: method as in Torrance et al, 2000; details: xenograft model; ref Torrance et al, 2000; cited from earlier work
[9] = design: method as in Torrance et al, 2000; details: ref Torrance et al, 2000; cited from earlier work

In the case of CN(C)C/C=C/C(=O)Nc1cc2c(Nc3ccc(F)c(Cl)c3)ncnc2cc1O[C@H]1CCOC1 [BIBW 2992], the “organs in which toxicity occurred” value [1] is given as “gastrointestinal tract”, the Maximum tolerated dose ([2]; OD 14 days on, 14 days off) is given as 70 mg and the “recommended dose (phase 2)” value ([2]; OD, 14-day on, 14-day off schedule) is given as 70 mg. For the same molecule, the incidence of diarrhoea ([2]; human, in vivo) was 84%, the “incidence of gastrointestinal AE” value ([2]; human, in vivo) was 92% and the onset of diarrhoea ([2]; human, in vivo) was at most 7 days. For the same molecule, the “overall incidence of rash, acne and dry skin” value ([2]; human, in vivo) was 95%, the “patients with grade 1 anemia” value ([2]; human, in vivo) was 6 patients and the “patients with mild fatigue” value ([2]; human, in vivo) was 24 patients. For the same molecule, the “patients with mild gastrointestinal AE (diarrhoea, nausea, vomiting)” value ([2]; human, in vivo) was 35 patients, the “patients with self-limiting epistaxis” value ([2]; human, in vivo) was 20 patients and the “DLT observed in cycle 1, initial 70 mg cohort” value ([2]; in vivo) was “one”. The “patients with LVEF reduction” value ([2]; in vivo) was “Two”, the “patients with grade 1 thrombocytopaenia” value ([2]; in vivo) was “two” and the “patients with grade 2 ALT” value ([2]; in vivo) was “three”. The “patients with grade 2 AST” value ([2]; in vivo) was “four”, the “patients with grade 2 alkaline phosphatase” value ([2]; in vivo) was “five” and the “patients with grade 2 bilirubin” value ([2]; in vivo) was “two”. The objective response (advanced solid tumours [3]; 38 patients, 10–100 mg) was “No partial or complete responses”, the “patients with minor tumour regressions” value (advanced solid tumours [3]; all treated at doses of ⩾45 mg) was “Eight” and the “median number of cycles in patients with stable disease” value (advanced solid tumours [3]; patients with stable disease ⩾4 cycles) was 6 (range 5–9) cycles. For the same molecule, the “patients with stable disease lasting ⩾4 cycles” value (advanced solid tumours [3]; various tumour types) was “seven”, the kinase inhibition (C-SRC) was “not inhibited” and the “percentage Ki-67-positive cells (means±s.d.)” value (epidermal keratinocytes) was 7.9±4.5%. The kinase inhibition [4] was “not inhibited”, the “time to reach steady state” value ([5]; OD dosing) was at most 8 days and the CL/F [5] was 383 to 1390 mL/min. For the same molecule, the Vd/F [5] was 1250 to 4760 L, the half-life [5] was 28 to 43 h and the AUC(0-t) ([5]; 10 mg) was 199 ng·h/mL. It also gave a CL/F ([5]; 10 mg) of 839 mL/min, a Cmax ([5]; 10 mg) of 14.1 ng/mL and a Tmax ([5]; 10 mg) of 2.98 h. The Vd/F ([5]; 10 mg) was 2610 L, the half-life ([5]; 10 mg) was 35.9 h and the AUC(0-t) ([5]; 20 mg) was 241 ng·h/mL. For the same molecule, the CL/F ([5]; 20 mg) was 1390 mL/min, the Cmax ([5]; 20 mg) was 16.2 ng/mL and the Tmax ([5]; 20 mg) was 4 h. For the same molecule, the Vd/F ([5]; 20 mg) was 4760 L, the half-life ([5]; 20 mg) was 39.7 h and the AUC(0-t) ([5]; 30 mg) was 1310 ng·h/mL. The CL/F ([5]; 30 mg) was 383 mL/min, the Cmax ([5]; 30 mg) was 111 ng/mL and the Tmax ([5]; 30 mg) was 0.95 h. For the same molecule, the Vd/F ([5]; 30 mg) was 1250 L, the half-life ([5]; 30 mg) was 37.7 h and the AUC(0-t) ([5]; 45 mg) was 840 ng·h/mL. The CL/F ([5]; 45 mg) was 893 mL/min, the Cmax ([5]; 45 mg) was 68.4 ng/mL and the Tmax ([5]; 45 mg) was 3 h. For the same molecule, the Vd/F ([5]; 45 mg) was 3350 L, the half-life ([5]; 45 mg) was 43.4 h and the AUC(0-t) ([5]; 70 mg) was 2620 ng·h/mL. It also gave a CL/F ([5]; 70 mg) of 445 mL/min, a Cmax ([5]; 70 mg) of 180 ng/mL and a Tmax ([5]; 70 mg) of 2 h. It also gave a Vd/F ([5]; 70 mg) of 1530 L, a half-life ([5]; 70 mg) of 39.6 h and an AUC(0-t) ([5]; 85 mg) of 2340 ng·h/mL. For the same molecule, the CL/F ([5]; 85 mg) was 604 mL/min, the Cmax ([5]; 85 mg) was 163 ng/mL and the Tmax ([5]; 85 mg) was 2 h. The Vd/F ([5]; 85 mg) was 1610 L, the half-life ([5]; 85 mg) was 30.8 h and the AUC(0-t) ([5]; 100 mg) was 2750 ng·h/mL. The CL/F ([5]; 100 mg) was 606 mL/min, the Cmax ([5]; 100 mg) was 234 ng/mL and the Tmax ([5]; 100 mg) was 1 h. For the same molecule, the Vd/F ([5]; 100 mg) was 1500 L, the half-life ([5]; 100 mg) was 28.6 h and the “patients with partial tumour responses” value (advanced solid tumours [6]; adenocarcinoma of the lung, ref Shaw et al, 2006) was “two”. The “LVEF changes in additional trials” value (advanced solid tumours [6]; preliminary data from ⩾120 patients, ref Agus et al, 2006, Shaw et al) was “not indicated significant LVEF changes”, the tumour regression ([7]; mice with A431, MDA-MB-453, NCI-N87 gastric, SKOV-3 ovarian models) was “induced tumour regression” and the “plasma concentrations at which tumour regression was induced” value ([7]; xenograft models in mice) was 80 to 280 nM.

In the case of C=CC(=O)Nc1cc2c(Nc3ccc(F)c(Cl)c3)ncnc2cc1OCCCN1CCOCC1 [CI-1033], the “inhibition of gefitinib-resistant kinases” value [8] is listed as “inhibition”.

In the case of CCOc1cc2ncc(C#N)c(Nc3ccc(F)c(Cl)c3)c2cc1NC(=O)/C=C/CN(C)C [EKB-569], the “duration of inhibition of EGFR phosphorylation” value (EGFR phosphorylation) is listed as over 24 h, the “inhibition of gefitinib-resistant kinases” value [8] is listed as “inhibition” and the plasma half-life [9] is listed as 2 h.

In the case of CCOc1cc2ncc(C#N)c(Nc3ccc(OCc4ccccn4)c(Cl)c3)c2cc1NC(=O)/C=C/CN(C)C [HKI-272], the “inhibition of gefitinib-resistant kinases” value [8] is listed as “inhibition”.
